Assay results published in the NIST ThermoML archive (doi:10.1016/j.jct.2015.12.034).
Numbers after ± are expanded uncertainties.

Assay: activity coefficient (dimensionless); of the first substance listed, at infinite dilution; xn = mol fraction of the nth substance listed
Conditions: 298.15 K; 238 kPa; Liquid; Chromatography; x1 = 0

Row | SMILES | activity coefficient
1 | Cc1ccccc1 [toluene] + CC(C)=O | 2.01 ± 0.17
2 | CCCCCCCC [octane] + CC(C)=O | 10.7 ± 0.9
3 | Cc1ccccc1 [toluene] + CC#N | 3.95 ± 0.34
4 | CCCCCCCC [octane] + CC#N | 52.3 ± 4.5
